From patent US9481885B2, “Methods and compositions related to miR-21 and miR-29a, exosome inhibition, and cancer metastasis” (Ohio State Innovation Foundation, priority 2011, dated 2016)

Tested on: spleen cells
Experiment: Flow-cytometric analysis of CD69 in spleen cells of WT and TLR7−/− mice
Type: cell-based, mouse
Details: cytofluorimetry
Procedure: Experiments were performed to determine whether the miRNA-TLR interaction is functional, and assessed whether the miRNAs of interest induce the secretion of cytokines such as TNF-α and IL-6, whose production is increased by TLR activation. We isolated peritoneal macrophages from WT and TLR7^−/− B6 mice. Cells were treated with Dotap alone or with Dotap formulations of miR-16, -21, -29a, and -147, and an ELISA for TNF-α and IL-6 was performed. In the functional assays, included also were miR-147 and -574-5p, because they have a mature viral-derived sequence that induces cytokine production through the activation of TLR8 and TLR7, similar to that of RNA33 (FIG. 14A). […] We also treated spleen cells from WT and TLR7^−/− mice with the same miRNAs and assessed expression of CD69, an early activation marker of cells which has a role in inflammation and proliferation and which also is activated by TLR3. Polyinosinic:polycytidylic acid [poly (I:C)], a known agonist of TLR3, served as positive control.
Total splenocytes derived from WT and TLR7^−/− age- and sex-matched mice were prepared by harvesting the spleen and preparing a single-cell suspension. Red blood cells were eliminated by osmotic lysis using red blood cell lysis buffer (eBioscience). […] Cells were stained with phycoerythrin-conjugated anti-CD69 (BioLegend) antibody and analyzed using FACSCalibur flow cytometer (Becton Dickinson).

Question: With “miR-147: synthetic mature miRNA (SEQ ID NO: 3), sequence similar to RNA33, Dotap formulation (GUGUGUGGAAAUGCUUCUGC; DOTAP formulation, further chemistry not given here)” as the substance, how does the CD69 activation (spleen cells from TLR7−/− mice) read?
Answer: Its CD69 activation is “not”.

Question: And the CD69 activation (spleen cells from WT mice)?
Answer: The CD69 activation was “induced”.
